# Data from article PMC10096180, “Half-Sandwich Type Platinum-Group Metal Complexes of C-Glucosaminyl Azines: Synthesis and Antineoplastic and Antimicrobial Activities” (Molecules, 2023).
# Where two headings read alike, the source gives them in different places.
# Experiments:
# [1] = test system: vancomycin-resistant Enterococcus (VRE) clinical isolates; experiment: Broth microdilution MIC, clinical VRE isolates; type: cell-based, E. faecium; settings: 24 h, 0.08–40 μM
# Method: (§1) We used a set of clinical isolates of S. aureus and E. faecium that were collected at the Medical Center of the University of Debrecen (Hungary) between 1 January 2018. and 31 December 2020. The clinical isolates were identified using a Microflex MALDI-TOF mass spectrometer (Bruker, Billerica, MA, USA). The antibiotic susceptibility of the isolates was tested following the European Committee on Antimicrobial Susceptibility Testing (EUCAST) guidelines, which were valid at the time of collection.
# (§2) Microdilution experiments were performed according to the standards of EUCAST [85]. The bacterial isolates to be tested were grown on Mueller–Hinton agar plates. The inoculum density of bacteria was set at 5.0 × 10^5 CFU/mL in microtiter plates in a final volume of 200 μL Mueller–Hinton broth. The tested concentration range was 0.08–40 μM (10 concentrations, twofold serial dilutions), and a drug-free growth control and an inoculum-free negative control were included. The inoculated plates were incubated for 24 h at 37 °C, then visually assessed. Minimum inhibitory concentration (MIC) was defined as the lowest concentration with a 50%≤ inhibitory effect compared to the growth control. All experiments were performed at least twice in duplicate.
# [2] = test system: methicillin-resistant Staphylococcus aureus (MRSA) clinical isolates; experiment: Broth microdilution MIC, clinical MRSA isolates; type: cell-based; settings: 24 h, 0.08–40 μM
# Method: as §1, §2
# [3] = test system: Enterococcus faecalis (ATCC29212); experiment: Broth microdilution MIC, reference strain; type: cell-based; settings: 24 h, tested range 0.08–40 μM, read-out: MIC E. faecalis ATCC 29,212
# Method: (§3) The reference strains of Staphylococcus aureus (ATCC29213) and Enterococcus faecalis (ATCC29212) were purchased from the ATCC (Manassas, VA, USA).
# as §2
# [4] = test system: Staphylococcus aureus (ATCC29213); experiment: Broth microdilution MIC, reference strain; type: cell-based; settings: 0.08–40 μM, read-out: MIC S. aureus ATCC 29213
# Method: as §3, §2
# A2780 cells [5] = experiment: MTT reduction assay, early toxicity, 4 h treatment; type: cell-based; settings: inhibition at maximum concentration (100 μM) where no plateau, ND = not detectable; for inhibition at 100 µM: Homo sapiens, read-out: A2780 MTT Max Inhibition
# Method: (§4) The complexes described above are intended to replace registered platinum complexes. Platinum complexes constitute the core of the chemotherapy regimen used in ovarian cancer; therefore, we used a cellular model of ovarian cancer, A2780, and primary human dermal fibroblasts as models of non-transformed cells (controls). For the characterization of the complexes, we used an MTT assay after 4 h of treatment for the detection of early toxicity and an SRB assay 48 h after treatment for the detection of cytostasis.
# An MTT reduction assay was measures the activity of mitochondrial complex I and can be used to detect toxicity. The assay was performed in a manner similar to that described in [84]. Briefly, cells were plated in 96-well plates the day before the assay. Cells were treated with the compounds for 4 h; then, MTT was added to a 0.5 mg/mL final concentration, and cells were incubated at 37 °C in a cell incubator for 40–60 min as a function of the cell line being assessed. Culture medium was removed, the reduced MTT dye was dissolved in dimethyl-sulfoxide, and plates were measured in a plate photometer (Thermo Scientific Multiscan GO spectrophotometer, Waltham, MA, USA) at 540 nm. On each plate, wells were designed to contain vehicle-treated cells. In calculations, the readings for these wells were considered to 1, and all readings were expressed relative to these values.
# (§5) Statistical analysis was performed using version 8.0.1 of GraphPad Prism. Values were tested for normal distribution using the Shapiro–Wilk normality test. Nonlinear regression was performed using the built-in “[Inhibitor] vs. response—Variable slope (four parameters), least square fit” utility of GraphPad, which yielded IC50 and Hill slope values if the sigmoid curves reached a plateau of inhibition and there was no decrease between two subsequent data points or when inhibition was over 90%. In other cases, the percentage of inhibition was taken for the maximum concentration (100 μM).
# A2780 cells [6] = experiment: SRB binding assay, cytostasis, 48 h treatment; type: cell-based; settings: up to 100 μM, ND = not detectable
# Method: as §4
# An SRB assay measures protein content of cells in correlation with the cell number in an assay well and can therefore be used to assess cell proliferation or long-term cytostasis. Cells were seeded in 96-well plates the day before the assay. Cells were treated with the compounds for 48 h. Then medium was removed, and cells were fixed with 10% trichloroacetic acid. Fixed cells were washed in distilled water 3 times, followed by staining with SRB (0.4 m/V% dissolved in 1% acetic acid) for 10 min. Stained cells were washed in 1% acetic acid 5 times; acetic acid was removed, and cells were left to dry. Protein-bound SRB was released by adding 100 μL 10 mM Tris base. Plates were measured in a plate photometer (Thermo Scientific Multiscan GO spectrophotometer, Waltham, MA, USA) at 540 nm. On each plate, wells were designed to contain vehicle-treated cells. In calculations, the readings for these wells were considered to be 1, and all readings were expressed relative to these values.
# as §5
# [7] = Distribution coefficient (logD), n-octanol-PBS; type: physicochemical; settings: n-octanol-PBS (pH = 7.4) system
# Method: The logD values of the newly synthesized complexes were determined according to a procedure described in our previous publications. page 64: Ir-7b +1.17 Rh-7b +1.41 Ru-7c +1.31 Os-7c +1.59 Ir-7c +1.40 Rh-7c +1.13 Ru-7d +1.26 Os-7d +1.42 Ir-7d +1.30 Rh-7d +1.04 Ru-7e +2.22 Os-7e +2.21 Ir-7e +1.39 Rh-7e +1.66 *logD was determined in an n-octanol-PBS (pH = 7.4) system 64 (14 pictures or pasted objects on this page, not shown here)
# [8] = Enterococcus, clinical isolate 25,051 VRE, read-out: MIC 25,051 VRE
# [9] = Enterococcus, clinical isolate 25,498 VRE, read-out: MIC 25,498 VRE
# [10] = Enterococcus, clinical isolate 27,085 VRE, read-out: MIC 27,085 VRE
# [11] = Staphylococcus aureus, clinical isolate 20,426 MRSA, read-out: MIC 20,426 MRSA
# [12] = Staphylococcus aureus, clinical isolate 24,035 MRSA, read-out: MIC 24,035 MRSA
# [13] = Staphylococcus aureus, clinical isolate 24,268 MRSA, read-out: MIC 24,268 MRSA
# [14] = Staphylococcus aureus, clinical isolate 24,272 MRSA, read-out: MIC 24,272 MRSA
# [15] = Staphylococcus aureus, clinical isolate 24,328 MRSA, read-out: MIC 24,328 MRSA
# [16] = Staphylococcus aureus, clinical isolate 24,408 MRSA, read-out: MIC 24,408 MRSA
# [17] = Staphylococcus aureus, ATCC29213, 24 h
structure (smiles),measurement,setting,value
"N[C@@H]1[C@@H](OCc2ccccc2)[C@H](OCc2ccccc2)[C@@H](COCc2ccccc2)O[C@H]1c1cnccn1 [Complex 3d, 2-(2′-Amino-2′-deoxy-3′,4′,6′-tri-O-benzyl-β-D-glucopyranosyl)pyrazine]",MIC,[1]; [8],> 40 µM
same,MIC,[1]; [9],> 40 µM
same,MIC,[1]; [10],> 40 µM
same,MIC,[2]; [11],> 40 µM
same,MIC,[2]; [12],> 40 µM
same,MIC,[2]; [13],> 40 µM
same,MIC,[2]; [14],> 40 µM
same,MIC,[2]; [15],> 40 µM
same,MIC,[2]; [16],> 40 µM
same,MIC,[3]; Enterococcus faecalis,> 40 µM
same,MIC,[4]; [17],> 40 µM
same,A2780 MTT Max Inhibition,A2780 cells [5],no activity
"N[C@@H]1[C@@H](OC(=O)c2ccccc2)[C@H](OC(=O)c2ccccc2)[C@@H](COC(=O)c2ccccc2)O[C@H]1c1ncccn1 [Complex 7c, 2-(2′-Amino-2′-deoxy-3′,4′,6′-tri-O-benzoyl-β-D-glucopyranosyl)pyrimidine]",A2780 SRB Max Inhibition,A2780 cells [6],79.53%
same,inhibition at 100 µM,A2780 cells [5],26.3%
Cc1ccc(C(C)C)cc1.F[P-](F)(F)(F)(F)F.N[C@@H]1[C@@H](OC(=O)c2ccccc2)[C@H](OC(=O)c2ccccc2)[C@@H](COC(=O)c2ccccc2)O[C@H]1c1ccc2ccccc2n1.[Cl][Ru+] [Ru-7e],MIC,"[1]; clinical isolate 25,051 VRE, read-out: MIC 25,051 VRE",>40 µM
same,MIC,"[1]; clinical isolate 25,498 VRE, read-out: MIC 25,498 VRE",>40 µM
same,MIC,"[1]; clinical isolate 27,085 VRE, read-out: MIC 27,085 VRE",>40 µM
same,A2780 SRB Max Inhibition,A2780 cells [6],67.50%
same,MIC,"[2]; clinical isolate 20,426 MRSA, read-out: MIC 20,426 MRSA",>40 µM
same,MIC,"[2]; clinical isolate 24,035 MRSA, read-out: MIC 24,035 MRSA",>40 µM
same,MIC,"[2]; clinical isolate 24,268 MRSA, read-out: MIC 24,268 MRSA",>40 µM
same,MIC,"[2]; clinical isolate 24,272 MRSA, read-out: MIC 24,272 MRSA",>40 µM
same,MIC,"[2]; clinical isolate 24,328 MRSA, read-out: MIC 24,328 MRSA",>40 µM
same,MIC,"[2]; clinical isolate 24,408 MRSA, read-out: MIC 24,408 MRSA",>40 µM
same,logD,[7],2.22
same,MIC,[3],>40 µM
same,MIC,[4]; 24 h,>40 µM
same,A2780 MTT Max Inhibition,A2780 cells [5],27.04%
Cc1c(C)c(C)[c-](C)c1C.F[P-](F)(F)(F)(F)F.N[C@@H]1[C@@H](OC(=O)c2ccccc2)[C@H](OC(=O)c2ccccc2)[C@@H](COC(=O)c2ccccc2)O[C@H]1c1cnccn1.[Cl][Ir+2] [Ir-7d],A2780 SRB Max Inhibition,A2780 cells [6],80.44%
same,logD,[7],1.30
same,A2780 MTT Max Inhibition,A2780 cells [5],38.71%
Cc1ccc(C(C)C)cc1.F[P-](F)(F)(F)(F)F.N[C@@H]1[C@@H](OC(=O)c2ccccc2)[C@H](OC(=O)c2ccccc2)[C@@H](COC(=O)c2ccccc2)O[C@H]1c1cnccn1.[Cl][Ru+] [Ru-7d],A2780 SRB Max Inhibition,A2780 cells [6],80.44%
same,logD,[7],1.26
same,A2780 MTT Max Inhibition,A2780 cells [5],64.04%
Cc1ccc(C(C)C)cc1.F[P-](F)(F)(F)(F)F.N[C@@H]1[C@@H](O)[C@H](O)[C@@H](CO)O[C@H]1c1ccccn1.[Cl][Ru+] [Ru-5a],A2780 SRB Max Inhibition,A2780 cells [6],did not exhibit any biological activity
same,logD,[7],−1.91
same,A2780 MTT Max Inhibition,A2780 cells [5],did not exhibit any biological activity
"N[C@@H]1[C@@H](O)[C@H](O)[C@@H](CO)O[C@H]1c1ccccn1 [Complex 5a, 2-(2′-Amino-2′-deoxy-β-D-glucopyranosyl)pyridine]",A2780 SRB Max Inhibition,A2780 cells [6],did not exhibit any biological activity
same,A2780 MTT Max Inhibition,A2780 cells [5],did not exhibit any biological activity
Cc1ccc(C(C)C)cc1.F[P-](F)(F)(F)(F)F.N[C@@H]1[C@@H](OC(=O)c2ccccc2)[C@H](OC(=O)c2ccccc2)[C@@H](COC(=O)c2ccccc2)O[C@H]1c1cnccn1.[Cl][Os+] [Os-7d],A2780 SRB Max Inhibition,A2780 cells [6],80.44%
same,logD,[7],1.42
same,A2780 MTT Max Inhibition,A2780 cells [5],46.72%
Cc1c(C)c(C)[c-](C)c1C.F[P-](F)(F)(F)(F)F.N[C@@H]1[C@@H](OC(=O)c2ccccc2)[C@H](OC(=O)c2ccccc2)[C@@H](COC(=O)c2ccccc2)O[C@H]1c1cnccn1.[Cl][Rh+2] [Rh-7d],A2780 SRB Max Inhibition,A2780 cells [6],64.76%
same,logD,[7],1.04
same,A2780 MTT Max Inhibition,A2780 cells [5],18.08%
"N[C@@H]1[C@@H](OC(=O)c2ccccc2)[C@H](OC(=O)c2ccccc2)[C@@H](COC(=O)c2ccccc2)O[C@H]1c1ccc2ccccc2n1 [Complex 7e, 2-(2′-Amino-2′-deoxy-3′,4′,6′-tri-O-benzoyl-β-D-glucopyranosyl)quinoline]",MIC,[1]; [8],> 40 µM
same,MIC,[1]; [9],> 40 µM
same,MIC,[1]; [10],> 40 µM
same,A2780 SRB Max Inhibition,A2780 cells [6],45.20%
same,MIC,[2]; [11],> 40 µM
same,MIC,[2]; [12],> 40 µM
same,MIC,[2]; [13],> 40 µM
same,MIC,[2]; [14],> 40 µM
same,MIC,[2]; [15],> 40 µM
same,MIC,[2]; [16],> 40 µM
same,MIC,[3]; Enterococcus faecalis,> 40 µM
same,MIC,[4]; [17],> 40 µM
same,inhibition at 100 µM,A2780 cells [5],13.6%
"N[C@@H]1[C@@H](OC(=O)c2ccccc2)[C@H](OC(=O)c2ccccc2)[C@@H](COC(=O)c2ccccc2)O[C@H]1c1cnccn1 [Complex 7d, 2-(2′-Amino-2′-deoxy-3′,4′,6′-tri-O-benzoyl-β-D-glucopyranosyl)pyrazine]",A2780 SRB Max Inhibition,A2780 cells [6],73.37%
same,inhibition at 100 µM,A2780 cells [5],18.1%
